In a compilation of properties of binary mixtures (doi:10.1016/j.molliq.2016.11.066):

Assay: xn = mol fraction of the nth substance listed
Details: 101 kPa

## CCCC[n+]1ccn(C)c1.F[P-](F)(F)(F)(F)F + COCCO
298.15 K, x1 = 0.0966
  speed of sound: 1365.5 m/s
298.15 K, x1 = 0.1943
  speed of sound: 1384.8 m/s
298.15 K, x1 = 0.3979
  speed of sound: 1407.6 m/s
298.15 K, x1 = 0.4792
  speed of sound: 1414.1 m/s
298.15 K, x1 = 0.6753
  speed of sound: 1427.3 m/s
298.15 K, x1 = 0.8101
  speed of sound: 1435.2 m/s
298.15 K, x1 = 1
  speed of sound: 1443.8 m/s
303.15 K, x1 = 0.0966
  speed of sound: 1349.4 m/s
303.15 K, x1 = 0.1943
  speed of sound: 1369.8 m/s
303.15 K, x1 = 0.2887
  speed of sound: 1383.3 m/s
303.15 K, x1 = 0.4792
  speed of sound: 1401.4 m/s
303.15 K, x1 = 0.5943
  speed of sound: 1409.8 m/s
303.15 K, x1 = 0.6753
  speed of sound: 1414.9 m/s
303.15 K, x1 = 0.8101
  speed of sound: 1422.8 m/s
303.15 K, x1 = 1
  speed of sound: 1431.7 m/s
308.15 K, x1 = 0.0966
  speed of sound: 1333.3 m/s
308.15 K, x1 = 0.1943
  speed of sound: 1354.5 m/s
308.15 K, x1 = 0.2887
  speed of sound: 1369 m/s
308.15 K, x1 = 0.4792
  speed of sound: 1388.8 m/s
308.15 K, x1 = 0.5943
  speed of sound: 1397.5 m/s
308.15 K, x1 = 0.8101
  speed of sound: 1411 m/s
308.15 K, x1 = 0.8849
  speed of sound: 1414.9 m/s
308.15 K, x1 = 1
  speed of sound: 1419.8 m/s
313.15 K, x1 = 0.0966
  speed of sound: 1317.6 m/s
313.15 K, x1 = 0.1943
  speed of sound: 1339.6 m/s
313.15 K, x1 = 0.2887
  speed of sound: 1355.1 m/s
313.15 K, x1 = 0.3979
  speed of sound: 1368.2 m/s
313.15 K, x1 = 0.4792
  speed of sound: 1376 m/s
313.15 K, x1 = 0.5943
  speed of sound: 1385.6 m/s
313.15 K, x1 = 0.8101
  speed of sound: 1399.3 m/s
313.15 K, x1 = 0.8849
  speed of sound: 1403.1 m/s
313.15 K, x1 = 1
  speed of sound: 1408.2 m/s
318.15 K, x1 = 0.0966
  speed of sound: 1301.5 m/s
318.15 K, x1 = 0.1943
  speed of sound: 1324.7 m/s
318.15 K, x1 = 0.2887
  speed of sound: 1341.4 m/s
318.15 K, x1 = 0.4792
  speed of sound: 1363.7 m/s
318.15 K, x1 = 0.5943
  speed of sound: 1373.6 m/s
318.15 K, x1 = 0.8101
  speed of sound: 1388 m/s
318.15 K, x1 = 0.8849
  speed of sound: 1391.8 m/s
323.15 K, x1 = 0.0966
  speed of sound: 1285.5 m/s
323.15 K, x1 = 0.1943
  speed of sound: 1310.1 m/s
323.15 K, x1 = 0.2887
  speed of sound: 1327.8 m/s
323.15 K, x1 = 0.3979
  speed of sound: 1343 m/s
323.15 K, x1 = 0.4792
  speed of sound: 1352.2 m/s
323.15 K, x1 = 0.5943
  speed of sound: 1362.1 m/s
323.15 K, x1 = 0.6753
  speed of sound: 1368.3 m/s
323.15 K, x1 = 0.8101
  speed of sound: 1377.2 m/s
323.15 K, x1 = 1
  speed of sound: 1385.6 m/s

## COCCO + CCCC[n+]1ccn(C)c1.F[P-](F)(F)(F)(F)F
298.15 K, x2 = 0
  speed of sound: 1342.1 m/s
303.15 K, x2 = 0
  speed of sound: 1324.7 m/s
308.15 K, x2 = 0
  speed of sound: 1307.4 m/s
313.15 K, x2 = 0
  speed of sound: 1290.1 m/s
318.15 K, x2 = 0
  speed of sound: 1272.7 m/s
323.15 K, x2 = 0
  speed of sound: 1255.4 m/s
